Measured values reported in patent publication US10034915B2, “Small heat shock proteins and active fragments thereof as a therapy for inflammation and ischemia” (The Board of Trustees of the Leland Stanford Junior …, priority 2011, dated 2018).
“Also recorded” adds a separate entry of the source.

Legend:
HSPB5−/− EAE mice = settings: WT and HSPB5 deficient mice; previously published data; cited from earlier work
stroke in Cryab−/− mice = assay: Cerebral ischemia (middle cerebral artery occlusion) in Cryab−/− mice, lesion size by silver stain; assay type: in vivo, mouse; settings: IP 1 h before stroke, 12 h, 24 h and daily for seven days, vs PBS treated Cryab−/−
Procedure: To test if increased plasma Cryab after stroke was beneficial, Cryab^−/− mice were given intraperitoneal injections of recombinant Cryab protein starting 1 h before stroke onset and continuing at 12 h, 24 h and daily afterwards for seven days in total.
Induction of cerebral ischemia. We used 12 to 14-week-old, male mice weighing 25-30 g. The weights of the animals in all experimental groups were similar. We used filament occlusion model of cerebral ischemia as described. Briefly, mice were anesthetized with 2% isoflurane in a mixture of 20% oxygen and 80% air. After the surgical exposure, the left external and common carotid arteries were permanently ligated. Then, a 7-0 mm, silicon rubber-coated, reusable monofilament (Doccol Inc, 70SPRe2045) was inserted into the left common carotid artery and advanced towards the left internal carotid artery 9-10 mm after the left carotid bifurcation. The core body temperature was checked by a rectal probe and maintained at 37° C. throughout the surgery by a heating pad and lamp. The cerebral blood flow was measured by a laser Doppler flow-meter and at least 80% reduction compared to presurgical baseline values was achieved after the insertion of the filament. The flowmeter probe was placed 2 mm posterior and 5-6 mm lateral to the bregma on the skull. The reperfusion was achieved by withdrawal of the filament 30 min after the insertion. […]

[1] = system: splenocytes stimulated with anti-CD3/anti-CD28, concanavalin-A or LPS; assay: Splenocyte cytokine response at 7 d after stroke, Cryab−/− mice; assay type: in vivo, mouse; settings: Cryab treated vs PBS treated Cryab−/− mice
Procedure: The effects of Cryab treatment on splenocytes isolated from PBS treated wild-type and Cryab^−/− mice and Cryab treated Cryab^−/− mice were assessed at 7 d after stroke. Splenocytes from PBS treated Cryab^−/− mice produced more pro-inflammatory IL-2, IL-17 and TNF when stimulated with anti-CD3/anti-CD28 than both PBS-treated wild-type mice and Cryab-treated Cryab^−/− mice splenocytes (FIG. 12e). When stimulated by concanavalin-A, splenocytes from PBS treated Cryab^−/− mice produced more pro-inflammatory IFN-γ, TNF, IL-12p40 and less anti-inflammatory IL-10 compared to the splenocytes from both PBS treated wild-type and Cryab treated Cryab^−/− mice (FIG. 12e). When stimulated with LPS, splenocytes from PBS treated Cryab^−/− mice produced more TNF and less IL-10 compared to the splenocytes from both PBS treated wild-type mice and Cryab treated Cryab^−/− mice (FIG. 12e).

brain T cells = assay: Brain T cell populations at 7 d after stroke (flow cytometry), wild-type mice; assay type: in vivo, mouse; settings: vs PBS
Procedure: The T cell populations in brain were analyzed at 7 d after stroke. […] However, when we quantitatively analyzed how many cytokine molecules existed per cell, we found fewer IL-17-PE molecules per CD3^+, CD4^+ and gd-T cells in Cryab-treated mice brains compared to PBS-treated ones (FIG. 15k, l).

mice with EAE = assay: EAE in C57BL/6J mice (MOG35-55/CFA, pertussis toxin), neurological impairment scoring; assay type: in vivo, mouse
Procedure: It was tested if the chaperone function of residues 73-92 of HspB5 were capable of reducing the symptoms of experimental allergic encephalomyelist (EAE), by inducing EAE in 9-week old female C57BL/6J by immunized subcutaneously with an emulsion containing 200 μg myelin oligodendrocyte glycoprotein 35-55 (MOG35-55; […] (SEQ ID NO:24)) in saline and an equal volume of complete Freund's adjuvant. Intraperitoneal injection of pertussis toxin at 0 and 48 h post-immunization results in paralysis beginning at day 12.

stroke in wild-type mice = assay: Cerebral ischemia (30 min middle cerebral artery filament occlusion) in wild-type mice, lesion size; assay type: in vivo, mouse; settings: vs PBS
Procedure: Because the restoration of plasma Cryab in Cryab^−/− mice decreased the lesion size, we next investigated whether administration of Cryab into wild-type mice would have a similar effect. When Cryab was administered beginning 1 h before stroke onset and then at 12 hrs after, the lesion size at 2 d was not different between PBS and Cryab treated wild-type mice groups (FIG. 14a).
Induction of cerebral ischemia. We used 12 to 14-week-old, male mice weighing 25-30 g. The weights of the animals in all experimental groups were similar. We used filament occlusion model of cerebral ischemia as described. Briefly, mice were anesthetized with 2% isoflurane in a mixture of 20% oxygen and 80% air. After the surgical exposure, the left external and common carotid arteries were permanently ligated. Then, a 7-0 mm, silicon rubber-coated, reusable monofilament (Doccol Inc, 70SPRe2045) was inserted into the left common carotid artery and advanced towards the left internal carotid artery 9-10 mm after the left carotid bifurcation. The core body temperature was checked by a rectal probe and maintained at 37° C. throughout the surgery by a heating pad and lamp. The cerebral blood flow was measured by a laser Doppler flow-meter and at least 80% reduction compared to presurgical baseline values was achieved after the insertion of the filament. The flowmeter probe was placed 2 mm posterior and 5-6 mm lateral to the bregma on the skull. The reperfusion was achieved by withdrawal of the filament 30 min after the insertion. After the closure of the surgical wound and the mice were returned to their cages with free access to water and food.

[2] = system: pro-inflammatory cytokines of MOG stimulated splenocytes; assay: Peripheral immune cell activation: cytokine production by MOG stimulated splenocytes of treated MOG immunized mice (ELISA); set-up: species or system mouse; settings: mice treated in vivo; splenocytes from MOG immunized mice
Procedure: Peripheral immune cell activation and cytokine analysis. Spleens and lymph nodes were isolated from mice 9 days after immunization with MOG35-55 and CFA. Spleens were mechanically disrupted to isolate single cell splencytes suspension. Cells were cultured in flat bottomed, 96-well plates in media (RPMI 1640 supplemented with […] L-glutamine, 1 mM sodium pyruvate, 0.1 mM non-essential amino acids, 100 U/mL penicillin, 0.1 mg/mL streptomycin, 0.5 uM 2-mercaptoethanol, and 10% fetal calf serum). Cells were stimulated with MOG35-55 (5 ug/mL, 10 ug/mL, and 20 ug/mL). For all activation assays, splenocytes were pooled from three mice per group and triplicate wells were plated. Supernatants of cells were collected at the time of peak production for each cytokine (48 hrs: IL-2, IL-12p40, IL-6; 72 hrs: TNFα and IFNγ; 96 hrs: IL-17; 120 hrs: IL-10). Cytokines were measured in the supernatants using anti-mouse OPTEIA ELISA kits (BD Pharmingen for IFNγ, IL-10, IL-2, IL-6, and IL-12p40; R&D Systems for IL-17 and TNFα).

[3] = system: splenocytes stimulated with concanavalin A or LPS; assay: Splenocyte cytokine response at 7 d after stroke, wild-type mice; assay type: in vivo, mouse; settings: vs PBS
Procedure: Effects of Cryab treatment on immune system. The effects of Cryab treatment on the splenocyte cytokine response were assessed at 7 d after stroke in wild-type mice. The total number of splenocytes in PBS and Cryab treated mice was equivalent at 7 d after stroke (data not shown). When stimulated by concanavalin A, splenocytes from Cryab treated mice produced fewer pro-inflammatory IL-2, IL-17, IFN-g, IL-12p40, IL-6 and more anti-inflammatory IL-10 than the splenocytes from PBS treated mice (FIG. 14d-i). When stimulated by LPS, Cryab-treated mice splenocytes produced fewer pro-inflammatory IL-6 and TNF than the splenocytes from PBS-treated mice (FIG. 14j, k).

## αB-crystallin [HSPB5]
HSPB5−/− EAE mice
  treatment of EAE by full-length protein: able to treat not only WT mice, but also HSPB5 deficient mice
Stroke in Cryab−/− mice
  lesion size at 7 d after stroke: significantly decreased; also recorded: confers neuroprotection
[1]
  peripheral inflammatory response (splenocyte cytokines): modulates the peripheral inflammatory response
Brain T cells; brain
  IL-17-PE molecules per CD3+, CD4+ and gd-T cells: fewer
  number of IFN-g-PE molecules per CD3+ or CD4+ cells: no differences
  percentages of IFN-g+ cells among CD3+ or CD4+ cells: no differences
  percentages of IL-17+ cells among CD3+, CD4+ or gd-T cells: no differences
Brain T cells
  total number of the brain CD3+, CD4+, CD8+ and gd-T cells: did not change
Mice with EAE; intraperitoneal 10-50 μg every other day starting at the peak of disease
  clinical paralysis / clinical scores of mice with EAE: significant reduction of clinical paralysis
Mice with EAE; intravenous administration
  symptoms of EAE: dramatic reduction of symptoms
Mice with EAE; mouse, in vivo
  symptoms after cessation of the administration: returned soon after cessation
Stroke in wild-type mice; before, during or after cerebral ischemia
  blood pressure, pulse rate, plasma glucose and lactate levels and arterial blood gas analysis: no differences
Stroke in wild-type mice; wild-type mice, given 1 h before stroke onset and 12 hrs after
  lesion size at 2 d after stroke (TTC staining): not different
Stroke in wild-type mice; wild-type mice, given 1 h before, 12 h, 24 h after and daily for seven days
  lesion size at 7 d after stroke (silver stain): significantly reduced
Stroke in wild-type mice; wild-type mice, initial treatment 12 h after stroke onset, listed as Cryab
  lesion size at 7 d after stroke (silver stain): reduced stroke pathology; also recorded: conferred neuroprotection
[2]
  production of pro-inflammatory cytokines by MOG stimulated splenocytes: reduction
[3]; LPS stimulation
  IL-6 production by splenocytes: fewer
  TNF production by splenocytes: fewer
[3]; concanavalin A stimulation
  IFN-g production by splenocytes: fewer
  IL-2 production by splenocytes: fewer
  IL-6 production by splenocytes: fewer
  IL-10 production by splenocytes: more
  IL-12p40 production by splenocytes: fewer
  IL-17 production by splenocytes: fewer
[3]
  total number of splenocytes: equivalent
